Data from US20230090691A1, “COMPOSITIONS AND METHODS FOR PROMOTING AND/OR MAINTAINING VAGINOVULVAL AND PERIANAL TISSUE VITALITY AND TISSUE HEALTH” (SPINART, LLC, priority 2021, published 2023).
Several values for one entry are separate records, joined by “and”; a condition that tells them apart may be missing. Equal entries are not always repeated. Entries after “also recorded” stand apart in the source; their conditions may differ.

Key:
[1] = system: human keratinocytes (HaCaT); test: Wound-healing (scratch) assay; assay type: cell-based; conditions: for wound area Basal (0 h): 20 ng/ml wells, immediately after wounding; for wound area Basal (0 h) / % area wound 24 h / % relative Area to Control 24 h / % wound healing 24 h / wound area 24 h: replicates; for wound healing enhanced, compared to the untreated control / Decreased wound area / % area wound 24 h / % relative Area to Control 24 h / % wound healing 24 h / wound area 24 h: 20 ng/ml; for wound healing enhanced, compared to the untreated control: 24 hours; for Decreased wound area: 24 hr
Source text: An in vitro scratch assay was used to study cell migration in vitro. [Todaro, G J et al. The initiation of cell division in a contact-inhibited mammalian cell line. J. Cell Physiol. (1965) 66: 325-33]. This method is based on the observation that, upon creation of a new artificial gap or “scratch”, on a confluent cell monolayer, the cells on the edge of the newly created gap will move toward the opening to close the “scratch” until new cell-cell contacts are established. One of the major advantages of this simple method is that it mimics to some extent migration of cell in vivo. For example, removal of part of the endothelium in blood vessels will induce migration of endothelial cells (ECs) into the denuded area to close the wound [Haudenschild, C. et al. Endothelial regeneration. II. Restitution of endothelial continuity. Lab. Invest. (1979) 41: 407-18]. Furthermore, the patterns of migration either as a loosely connected population (e.g., fibroblasts) or as sheets of cells (e.g., epithelial and EECs) also mimic the behavior of these cells during migration in vivo. The scratch assay is particularly suitable to study the regulation of cell migration by cell interaction with extracellular matrix (ECM) and cell-cell interactions.
For the wound-healing assay, HaCaT keratinocytes were seeded overnight in DMEM medium supplemented with 10% fetal bovine serum (FBS) at 80% confluence (190,000 cells per well. The next day, a 2 mm wound was made over the confluent monolayer using a 1 ml pipete tip. Test samples were added to the HaCaT cells, supplemented with 0.5% FBS. The untreated control was 0.5% FBS.
Images were taken before and after 24 hours of treatment, and wound area was quantified using ImageJ software. All data were statistically analyzed.
For seeding cells, cell numbers and viability were determined using Trypan-Blue staining; cells were counted in a Bürker chamber under the microscope. Human keratinocytes (HaCaT cells) were seeded overnight in DMEM medium supplemented with 10% fetal bovine serum (FBS).
Parallel lines were drawn at the bottom of the wells (3 mm separated lines outside the plate). These lines were used as boundaries for scratch images, thus providing an accurate analysis in each well. Cells were seeded at 190,000 cells/well to promote the formation of a monolayer and kept at 37 C for 24 h. Then, 2 mm-wide wounds were made in the confluent monolayer. Wells were washed once with PBS and refilled with DMEM+0.5% FBS. Basal images were taken immediately using a microscope. […] In addition, human epidermal growth factor (hEGF) at 20 ng/ml was included as a positive control, and 0.5% FBS as a basal control.
Plates were placed in the 37° C. incubator and incubated for 24 h to allow the scratch to heal. Microscopic images are shown below. One biological replicate was performed and four technical replicates per condition were used.
Data analysis was performed using ImageJ software. Microscopic images are shown in Results. Statistical analysis (ordinary one-way ANOVA test) was performed to determine the significance between tested samples and basal control.
The percentage of wound area in each well at 24 hr was calculated by dividing the wound area at 24 hr and the wound area immediately after making the wound. The mean value for the four replicates in the Basal Control (untreated) group was obtained and used to normalize each measure in all of the samples and conditions. A bar graph was generated to represent the wound area or wound healing in each of the tested conditions.

[2] = system: urogenital atrophy in breast cancer patients; conditions: study of 46 patients; compared to saline; cited from earlier work
[3] = experiment with RS-0198A and RS-0198B

Row | Compound | wound area Basal (0 h) [1] | wound area Basal (0 h) ([1]; listed as C + EGF) | wound healing enhanced, compared to the untreated control ([1]; experiment with RS012221) [%] | wound healing enhanced, compared to the untreated control [1, 3] [%] | Decreased wound area ([1]; experiment with RS012221) [%] | Decreased wound area [1, 3] [%] | % area wound 24 h [1] | % relative Area to Control 24 h [1] | % wound healing 24 h [1] | wound area 24 h [1] | % area wound 24 h ([1]; listed as C + EGF) | % relative Area to Control 24 h ([1]; listed as C + EGF) | % wound healing 24 h ([1]; listed as C + EGF) | wound area 24 h ([1]; listed as C + EGF) | wound area (result in words) ([1]; 24 hr treatment of HaCaT, compared to the untreated control) | wound healing (result in words) ([1]; 24 h treatment of HaCaT, compared to untreated control, concentrations as in the sentence, listed as hEGF) | patients with reduced dyspareunia [2] [%]
1 | EGF: human epidermal growth factor, positive control at 20 ng/ml | 1324098 pixels and 1346138 pixels and 1134400 pixels and 1741659 pixels | 1188450 pixels and 1278864 pixels and 1237384 pixels and 1227903 pixels | 94.0±8.6 | 60.4±15.7 | 94.0±8.6 | 60.4 ± 15.7 | 19.877% and 29.524% and 18.706% and 6.405% | 42.310% and 62.846% and 39.818% and 13.633% | 57.690% and 37.154% and 60.182% and 86.367% | 263185 pixels and 397433 pixels and 212198 pixels and 111545 pixels | 27.291% and 2.058% and 0.000% and 5.244% | 89.630% and 6.758% and 0.000% and 17.222% | 10.370% and 93.242% and 100.000% and 82.778% | 24456 pixels and 0 pixels (2×) and 64389 pixels | significantly decreased wound area | enhanced wound healing; also recorded: boosted wound healing | 
2 | CCN(CC)CC(=O)Nc1c(C)cccc1C [lidocaine] |  |  |  |  |  |  |  |  |  |  |  |  |  |  |  |  | 90
